Test results: article PMC11070402, “New antiproliferative 3-substituted oxindoles inhibiting EGFR/VEGFR-2 and tubulin polymerization” (Molecular Diversity, 2023)
Read-outs that look alike come from different tables or passages of the source.

How the values were obtained:
PDGFR_ẞ = target: T1, PDGFR_ẞ (Homo sapiens, UniProt P09619); assay: PDGFR_ẞ kinase assay kit (Kinase-Glo MAX); format: biochemical
T1 construct: purchased
Experimental: The receptor tyrosine kinases, namely EGFR, VEGFR-2, and PDGFR_ẞ Kinases Assay Kits, are designed to measure EGFR, VEGFR-2, and PDGFR_ẞ Kinases’ activities for screening and profiling applications using Kinase-Glo® MAX as a detection reagent. The EGFR, VEGFR-2, and PDGFR_ẞ Kinases Assay Kits come in a convenient 96-well format, with enough purified recombinant EGFR enzyme, EGFR substrate, ATP, and kinase assay buffer for 100 enzyme reactions. The master mixture (25 µl per well) was equipped out of Kinase assay buffer (6 µl), ATP (500 µM, 1 µl), PTK substrate (50x, 1 µl), and water (17 µl) and transferred into each well. […] EGFR, VEGFR-2, and PDGFR_ẞ Kinases were softened on ice. Its tube was spun briefly to recover its full content of the tube. These enzymes were diluted with 1 × Kinase assay buffer to 1 ng/ µl. The reaction was initiated by adding 20 µl of diluted EGFR, VEGFR-2, and PDGFR_ẞ enzymes to the wells designated “Positive Control” and “Test Inhibitor Control.” The plate was incubated at 30 °C for 40 min. After the 40-min reaction, the Kinase-Glo Max (50 µl) reagent was added to each well. The plate was covered with aluminum foil and incubated at room temperature for 15 min, and the luminescence was measured using the microplate reader.

MCF-7 cells = assay: Cell cycle analysis by DNA flow cytometry; format: cell-based, human
Experimental: MCF-7 Cells were placed in a six-well plate at 1 × 10^5 concentration of cells/well and then kept for incubation for 24 h. […] Cells were then collected and fixed for 12 h using ice-cold 70% ethanol at 4 °C. Ethanol was then removed, and cells were washed with cold phosphate buffer saline (PBS, 0.5 ml) and preserved for 30 min at 37 °C. The cells were stained for 30 min with propidium iodide in the dark. A flow cytometer was used to detect DNA content.

tubulin = assay: Tubulin polymerization inhibition assay; format: biochemical
[1] = system: Human Skin Fibroblasts (HSF) cells; assay: Margin of safety: cytotoxicity on human skin fibroblasts (SRB assay); format: cell-based; conditions: Human Skin Fibroblasts, SRB assay, 72 h exposure, read-out: HSF (IC50 ± SD)
Experimental: Cell viability was assessed via SRB assay. Aliquots of 100 µl cell suspension (5 × 10^3 cells) were in 96-well plates and incubated in a complete media for 24 h. […] After 72 h of drug exposure, cells were fixed by replacing media with 150 µl of 10% TCA and incubated at 4 °C for 1 h. The TCA solution was removed, and the cells were washed 5 times with distilled water. Aliquots of […] SRB solution (0.4 w/v) were added and incubated in a dark place at room temperature for 10 min. Plates were washed 3 times with 1% acetic acid and allowed to air-dry overnight. Then, 150 µl of TRIS (10 mM) was added to dissolve the protein-bound SRB stain; the absorbance was measured at 540 nm using a BMG LAB TECH®-FLUO star Omega microplate reader (Ortenberg, Germany).

[2] = system: NCI/ADR-RES (ovarian cancer cell line); assay: NCI one-dose assay, NCI/ADR-RES; format: cell-based; conditions: Homo sapiens; NCI/ADR-RES; 10 µM single dose, 48 h incubation; read-out: cell growth inhibition % (GI %)
Experimental: All novel scaffolds 6a–j were carefully selected by the National Cancer Institute (NCI), Bethesda, USA, to elucidate their cytotoxic activity versus 60 human cancer cell lines at 10 µM as a single-dose concentration after a 48 h incubation period.
National Cancer Institution selected all the synthesized 6a–j (NCI), Bethesda, USA, for in vitro one-dose antitumor assay. The methodology protocol for the NCI anticancer screening was reported in detail elsewhere (http://www.dtp.nci.nih.gov). The anticancer assay was performed in full NCI 60 cell lines extracted from nine tumor cell lines, including leukemia, melanoma, lung, colon, CNS, ovarian, renal, prostate, and breast cancer cell lines.

T1 sequence (P09619 33-1106, species assumed): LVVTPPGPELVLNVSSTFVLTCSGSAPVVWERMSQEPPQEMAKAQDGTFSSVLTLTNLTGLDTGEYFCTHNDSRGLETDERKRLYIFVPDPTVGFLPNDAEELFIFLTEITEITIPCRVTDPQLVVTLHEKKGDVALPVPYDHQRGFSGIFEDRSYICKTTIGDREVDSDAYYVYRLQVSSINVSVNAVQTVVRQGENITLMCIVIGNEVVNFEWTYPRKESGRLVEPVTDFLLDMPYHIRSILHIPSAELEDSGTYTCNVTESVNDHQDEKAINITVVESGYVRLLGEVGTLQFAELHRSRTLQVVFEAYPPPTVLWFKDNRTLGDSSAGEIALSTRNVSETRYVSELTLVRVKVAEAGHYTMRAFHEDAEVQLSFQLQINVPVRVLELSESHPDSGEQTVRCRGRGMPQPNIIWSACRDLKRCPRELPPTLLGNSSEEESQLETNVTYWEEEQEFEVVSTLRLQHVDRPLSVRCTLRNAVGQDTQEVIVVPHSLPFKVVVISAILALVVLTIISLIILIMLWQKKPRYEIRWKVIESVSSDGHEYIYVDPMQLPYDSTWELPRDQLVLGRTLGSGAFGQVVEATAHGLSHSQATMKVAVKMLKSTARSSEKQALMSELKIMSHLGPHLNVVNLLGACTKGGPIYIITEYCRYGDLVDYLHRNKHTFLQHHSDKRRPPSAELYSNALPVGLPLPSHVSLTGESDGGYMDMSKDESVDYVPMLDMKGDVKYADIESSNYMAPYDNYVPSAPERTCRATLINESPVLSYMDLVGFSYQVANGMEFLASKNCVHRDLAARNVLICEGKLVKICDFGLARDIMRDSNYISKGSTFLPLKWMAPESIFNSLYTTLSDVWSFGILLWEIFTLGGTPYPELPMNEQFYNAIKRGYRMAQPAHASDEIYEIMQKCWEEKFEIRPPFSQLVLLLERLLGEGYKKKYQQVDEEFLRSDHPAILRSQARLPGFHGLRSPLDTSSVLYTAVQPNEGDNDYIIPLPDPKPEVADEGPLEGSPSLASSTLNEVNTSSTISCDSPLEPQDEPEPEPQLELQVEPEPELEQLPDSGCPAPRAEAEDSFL

O=C1Nc2ccccc2C1=Cc1ccc(OCC(=O)c2ccc(Br)cc2)cc1 [Compound 6f, 3-{4-[2-(4-Bromophenyl)-2-oxoethoxy]benzylidene}indolin-2-one]
%inh PDGFRβ (PDGFR_ẞ; conc 0.01 (unit not given)): 25.63% | %inh PDGFRβ (PDGFR_ẞ; conc 0.1 (unit not given)): 40.59% | %inh PDGFRβ (PDGFR_ẞ; conc 1 (unit not given)): 70.36% | %inh PDGFRβ (PDGFR_ẞ; conc 10 (unit not given)): 88.18% | IC50 (PDGFR_ẞ; read-out: PDGFR_ẞ inhibition (IC50 ± SD)): 3.18 ± 0.007 µM | cell cycle arrest phase (MCF-7 cells; MCF-7 cells, flow cytometry): G0–G1phase | Freq G1 (percentage of cells) (MCF-7 cells; MCF-7 treated with IC50 of compound 6f (19.43 μM in method), 24 h, control 40.68): 51.30% | %inh Tub (tubulin; conc 0.1 (uM printed only in the CA-4 head)): 7% | %inh Tub (tubulin; conc 1 (uM printed only in the CA-4 head)): 15% | %inh Tub (tubulin; conc 10 (uM printed only in the CA-4 head)): 56% | %inh Tub (tubulin; conc 100 (uM printed only in the CA-4 head)): 80% | IC50 (tubulin; read-out: Tubulin polymerization inhibition (IC50 ± SD)): 7.99 ± 0.49 µM | IC50 ([1]; Homo sapiens, HSF, 72 h): 19.4 µM | IC50 [1]: 19.4 ± 1.17 µM

O=C1Nc2cc(Cl)ccc2C1=Cc1ccc(OCC(=O)c2ccc(Br)cc2)cc1 [Compound 6g, 6-Chloro-3-{4-[2-(4-bromophenyl)-2-oxoethoxy]benzylidene}indolin-2-one]
inhibition at 10 µM [2]: 52.2% | melting point: 249 to 251 °C
